Laboratory results as given in patent US11472803B2, “7-substituted 1-aryl-naphthyridine-3-carboxylic acid amides and use thereof” (Bayer Aktiengesellschaft, priority 2016, dated 2022).
Where a name gives a salt, the structure may show the parent alone.

Biological target: T1, human M2 receptor (Homo sapiens, UniProt P08172)
T1 construct: expressed in transfected cells; host or cells: CHO-DUKX (CHO-DUKX-M2-GIRK)
T1 sequence (P08172 1-466): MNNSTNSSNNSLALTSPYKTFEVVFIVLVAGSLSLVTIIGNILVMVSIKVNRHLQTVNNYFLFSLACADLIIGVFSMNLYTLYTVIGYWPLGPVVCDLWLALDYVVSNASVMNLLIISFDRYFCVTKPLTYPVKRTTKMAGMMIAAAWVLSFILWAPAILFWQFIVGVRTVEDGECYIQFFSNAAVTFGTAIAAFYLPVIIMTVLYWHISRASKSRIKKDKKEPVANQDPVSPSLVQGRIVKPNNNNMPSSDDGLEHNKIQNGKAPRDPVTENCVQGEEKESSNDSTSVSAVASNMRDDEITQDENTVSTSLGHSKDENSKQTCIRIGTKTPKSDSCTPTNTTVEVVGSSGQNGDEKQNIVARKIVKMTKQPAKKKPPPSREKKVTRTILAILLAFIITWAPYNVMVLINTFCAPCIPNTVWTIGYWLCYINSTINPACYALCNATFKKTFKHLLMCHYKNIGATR
Experiment: Functional M2-GIRK1/4 activation test: allosteric potency (EC50) and efficiency at EC20 acetylcholine
Assay type: cell-based
Details: CHO-DUKX-M2-GIRK cells; for EC50: voltage-sensitive dye, acetylcholine at EC20, in some cases mean of two or more determinations; for Emax / Efficiency: boosting of the acetylcholine effect at EC20 acetylcholine concentration
Method in brief: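 Positive allosteric modulation measured as boosting of an EC20 acetylcholine response: hyperpolarization via GIRK1/4 in CHO-DUKX-M2-GIRK cells, monitored by membrane-potential dye fluorescence over 60 s after agonist, compound preadded. Hill-function fit gives EC50 and efficiency.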

EC50 [nM] | Emax [%] | Efficiency [%] | SMILES
120 | 73 | – | CC(NC(=O)c1cn(-c2c(F)cc(F)cc2F)c2nc(N3CCNCC(O)C3)c(F)cc2c1=O)C(F)(F)C(F)(F)F (centres unmarked) [Example 200, 6-Fluoro-7-[6-hydroxy-1,4-diazepan-1-yl]-4-oxo-N-[3,3,4,4,4-pentafluorobutan-2-yl]-1-(2,4,6-trifluorophenyl)-1,4-dihydro-1,8-naphthyridine-3-carboxamide]
1600 | 81 | – | O=C(Nc1c(Cl)cccc1Cl)c1cn(-c2ccc(F)cc2F)c2ncc(Cl)cc2c1=O [Example 133, 6-Chloro-N-(2,6-dichlorophenyl)-1-(2,4-difluorophenyl)-4-oxo-1,4-dihydro-1,8-naphthyridine-3-carboxamide]
32 | 92 | – | O=C(N[C@@H](C1CC1)C(F)(F)F)c1cn(-c2c(F)cc(F)cc2Cl)c2nc(N3CC4(COC4)C3)c(F)cc2c1=O [Example 68, 1-(2-Chloro-4,6-difluorophenyl)-N-[(1S)-1-cyclopropyl-2,2,2-trifluoroethyl]-6-fluoro-7-(2-oxa-6-azaspiro[3.3]hept-6-yl)-4-oxo-1,4-dihydro-1,8-naphthyridine-3-carboxamide trifluoroacetate]
17 | 99 | – | CC[C@H](NC(=O)c1cn(-c2c(F)cc(F)cc2F)c2nc(N3C[C@H](O)[C@@H](O)C3)c(F)cc2c1=O)C(F)(F)F [Example 178, 7-[(3S,4S)-3,4-Dihydroxypyrrolidin-1-yl]-6-fluoro-4-oxo-N-[(2S)-1,1,1-trifluorobutan-2-yl]-1-(2,4,6-trifluorophenyl)-1,4-dihydro-1,8-naphthyridine-3-carboxamide]
2.7 | 94 | – | CCC(C)(C)NC(=O)c1cn(-c2c(F)cc(F)cc2Cl)c2nc(N3C[C@@H](O)[C@H](O)C3)c(F)cc2c1=O [Example 73, 1-(2-Chloro-4,6-difluorophenyl)-7-[(3R,4R)-3,4-dihydroxypyrrolidin-1-yl]-6-fluoro-N-(2-methylbutan-2-yl)-4-oxo-1,4-dihydro-1,8-naphthyridine-3-carboxamide]
26 | 97 | – | O=C(NC(C(F)(F)F)C(F)(F)F)c1cn(-c2c(F)cc(F)cc2F)c2nc(N3CCCC[C@@H]3CO)c(F)cc2c1=O [Example 188, 6-Fluoro-N-(1,1,1,3,3,3-hexafluoropropan-2-yl)-7-[(2R)-2-(hydroxymethyl)piperidin-1-yl]-4-oxo-1-(2,4,6-trifluorophenyl)-1,4-dihydro-1,8-naphthyridine-3-carboxamide]
18.7 | 96 | – | CCC(NC(=O)c1cn(-c2c(F)cc(F)cc2F)c2nc(N3CCOCC3)c(F)cc2c1=O)C(F)(F)C(F)(F)F (racemic) [Example 148, 6-Fluoro-7-(morpholin-4-yl)-4-oxo-N-[1,1,1,2,2-pentafluoropentan-3-yl]-1-(2,4,6-trifluoro-phenyl)-1,4-dihydro-1,8-naphthyridine-3-carboxamide]
7 | 100 | – | CC(NC(=O)c1cn(-c2c(F)cc(F)cc2F)c2nc(N3CC[C@H](O)C3)c(Br)cc2c1=O)C(F)(F)C(F)(F)F (single isomer, unassigned) [Example 232]
8.7 | 100 | – | CC(C)[C@H](C)NC(=O)c1cn(-c2c(F)cc(F)cc2F)c2nc(N3CC[C@H](O)C3)c(F)cc2c1=O [Example 119, 6-Fluoro-7-[(3S)-3-hydroxypyrrolidin-1-yl]-N-[(2S)-3-methylbutan-2-yl]-4-oxo-1-(2,4,6-tri-fluorophenyl)-1,4-dihydro-1,8-naphthyridine-3-carboxamide]
80 | 85 | – | O=C(NCC(F)(F)F)c1cn(-c2c(F)cc(F)cc2F)c2nc(N3C[C@@H](O)[C@H](O)C3)c(F)cc2c1=O [Example 220, 7-[(3R,4R)-3,4-dihydroxypyrrolidin-1-yl]-6-fluoro-4-oxo-N-(2,2,2-trifluoroethyl)-1-(2,4,6-trifluorophenyl)-1,4-dihydro-1,8-naphthyridine-3-carboxamide]
1.3 | – | 83 | O=C(N[C@@H](C1CC1)C(F)(F)F)c1cn(-c2c(F)cc(F)cc2Cl)c2nc(N3C[C@@H](O)[C@H](O)C3)c(F)cc2c1=O (single isomer, unassigned) [Example 52]
110 | 91 | – | CN1CCN(c2nc3c(cc2F)c(=O)c(C(=O)N[C@@H](C2CC2)C(F)(F)F)cn3-c2c(F)cc(F)cc2F)C(CO)C1 (stereo partly drawn) [Example 176, N-[(1S)-1-Cyclopropyl-2,2,2-trifluoroethyl]-6-fluoro-7-[2-(hydroxymethyl)-4-methylpiperazin-1-yl]-4-oxo-1-(2,4,6-trifluorophenyl)-1,4-dihydro-1,8-naphthyridine-3-carboxamide]
7.2 | – | 99 | CCC(COC(F)(F)F)NC(=O)c1cn(-c2c(F)cc(F)cc2F)c2nc(N3CC[C@H](O)C3)c(F)cc2c1=O (single isomer, unassigned) [Example 111]
110 | 82 | – | C[C@H](NC(=O)c1cn(-c2c(F)cc(F)cc2Cl)c2nc(N3C[C@@H](O)[C@H](O)C3)c(F)cc2c1=O)C(F)(F)F (single isomer, unassigned) [Example 225]
8.1 | 100 | – | CC(C)C(NC(=O)c1cn(-c2c(F)cc(F)cc2F)c2nc(N3C[C@@H](O)[C@@H](O)C3)c(F)cc2c1=O)C(C)C [Example 103, 7-[(3R,4S)-3,4-Dihydroxypyrrolidin-1-yl]-N-(2,4-dimethylpentan-3-yl)-6-fluoro-4-oxo-1-(2,4,6-trifluorophenyl)-1,4-dihydro-1,8-naphthyridine-3-carboxamide]
3.55 | 92 | – | CC(C)(CC(F)(F)F)NC(=O)c1cn(-c2c(F)cc(F)cc2F)c2nc(N3CC[C@H](O)C3)c(F)cc2c1=O [Example 107, 6-Fluoro-7-[(3S)-3-hydroxypyrrolidin-1-yl]-4-oxo-N-(4,4,4-trifluoro-2-methylbutan-2-yl)-1-(2,4,6-trifluorophenyl)-1,4-dihydro-1,8-naphthyridine-3-carboxamide]
1.3 | 95 | – | CCC(NC(=O)c1cn(-c2c(F)cc(F)cc2F)c2nc(N3CC(CO)(CO)C3)c(F)cc2c1=O)C(F)(F)C(F)(F)F (racemic) [Example 171, 7-[3,3-Bis(hydroxymethyl)azetidin-1-yl]-6-fluoro-4-oxo-N-[1,1,1,2,2-pentafluoropentan-3-yl]-1-(2,4,6-trifluorophenyl)-1,4-dihydro-1,8-naphthyridine-3-carboxamide]
13 | 83 | – | CC(NC(=O)c1cn(-c2c(F)cc(F)cc2F)c2nc(N3CCC(O)C(O)C3)c(F)cc2c1=O)C(F)(F)C(F)(F)F (centres unmarked) [Example 181, 7-(3,4-Dihydroxypiperidin-1-yl)-6-fluoro-4-oxo-N-(3,3,4,4,4-pentafluorobutan-2-yl)-1-(2,4,6-trifluorophenyl)-1,4-dihydro-1,8-naphthyridine-3-carboxamide]
3.55 | 100 | – | CC(C)C(NC(=O)c1cn(-c2c(F)cc(F)cc2F)c2nc(N3CC[C@H](O)C3)c(F)cc2c1=O)C(C)C [Example 122, N-(2,4-Dimethylpentan-3-yl)-6-fluoro-7-[(3S)-3-hydroxypyrrolidin-1-yl]-4-oxo-1-(2,4,6-tri-fluorophenyl)-1,4-dihydro-1,8-naphthyridine-3-carboxamide]
